Source: US20080081835A1, “Use of Ltb4 Inhibitors for the Treatment of B-Cell Leukemias and Lymphomas” (priority 2004, published 2008)

Key:
B-CLL cells [1] = experiment: DNA synthesis (3H-thymidine incorporation) in B-CLL cells activated by CD40L-L cells, 96 hr co-culture; format: cell-based, human
Experimental: FIG. 3 depicts the effects of leukotriene biosynthesis inhibitors on CD40L-induced thymidine incorporation in B-CLL cells. B-CLL cells (2×10^5) were co-cultured with either irradiated L cells alone (L), irradiated CD40L-L cells or irradiated CD40L-L cells plus indicated inhibitor for 96 hr. When inhibitors were used, B-CLL cells were pre-treated with the inhibitor for 30 min prior co-culturing with L cells or CD40L-L cells. The inhibitors used were: […]. The control result reported in the Figure represents B-CLL cells co-cultured with irradiated CD40L-L cells alone. ^3H-thymidine (1 μCi) was present for the final eight hours. Activation of B-CLL cells with CD40L-L treatment led to between 3580 and 15369 cpm (^3H-thymidine) incorporation (control) in different experiments. This was set as 100% in each experiment. […] Student's t-test was used to calculate statistics i.e. control vs. control plus indicated compound(s) (** P<0.01, *** P<0.001). B-cells were isolated from patients suffering with B-CLL or B-prolymphocytic leukemia (B-PLL) who had not received chemotherapy within during the previous six weeks (see Table 1 below). Peripheral blood samples were obtained after informed consent and with local ethics committee approval. Blood samples were Ficoll-Isopaque purified and washed twice in phosphate buffered saline (PBS). After that, cells were either frozen in PBS with 50% human AB serum and 10% dimethylsulfoxide or analyzed fresh. Frozen cell samples were thawed and washed in ice cold fetal calf serum and subsequently in PBS before analysis. Cells from two patients were used twice, both freshly isolated cells and after freezing with similar results. […]. The purity of the isolated cells was estimated by flow cytometric analysis (with FACS Calibur, Becton Dickinson, Mountain View, Calif.). Morphological analysis was performed after staining with May-Grunewald/Giemsa solution. The purity of B-CLL and B-PLL cells was >98%. Purified B-CLL cells were cultured in RPMI 1640 medium, supplemented with 10% FCS, 2 mM L-glutamine, 100 U/mL penicillin and 100 μg/mL streptomycin and incubated at […] in an atmosphere of 5% CO2. 2×10^5 of B-CLL cells were seeded in 200 μL medium in 96-well plates. B-CLL cells were pretreated with MK-886 (a specific FLAP inhibitor) (10^−6 to 10^−9 M) or BWA4C (a specific 5-LO inhibitor) (10^−7 to 10^−9 M) for 30 min, before co-culturing with irradiated (15,000 Rad) CD40L expressing L (CD40L-L) cells or control L (L) cells in the presence of inhibitors. LTB4 (10^−7 M) was present in the indicated cultures. Each sample was represented by triplicates. 1 μCi ^3H-thymidine was present in the wells for the final eight […] of the 96 hr cultures. The cells were harvested onto glass fibre filter and radioactivity was measured in a liquid scintillation counter.

B-CLL cells [2] = experiment: Flow cytometry (FACS) analysis of CD23, CD54 and CD150 expression in CD40L activated B-CLL cells; format: cell-based, human; settings: for effect on CD40-induced increased expression of CD23, CD54 and CD150: 100 nM, 96 hrs
Experimental: FIG. 4 depicts the effects of leukotriene biosynthesis inhibitors on the expression of CD23, CD54 and CD150 in CD40L activated B-CLL. Purified B-CLL cells were co-cultured with either L cells or CD40L-L cells in the absence or presence of MK886 (10^−7 M), BWA4C (10^−7 M), and/or LTB4 (10^−7 M) for 96 hrs. When inhibitors were used, B-CLL cells were pre-treated with the inhibitor for 30 min prior to co-culturing with L cells or CD40L-L cells. B-CLL cells were collected and analysed by FACS with antibodies against CD23, CD54 or CD150. The figure depicts one typical experiment out of six. […] Cultured (described above) B-CLL cells were collected (without the plastic attached L cells) and used for FACS detection. Surface marker expression was detected by indirect immunofluorescence. One million cells/sample were washed in cold PBS containing 1% FCS and 0.1% sodium azide and then exposed to the relevant antibodies. The cells were washed and incubated with the RPE conjugated secondary antibody. All incubations were done at 4° C. Samples were run on a Becton Dickinson FACScan flow cytometer (Becton Dickinson, Mountain View, Calif.). The CellQuest software (Becton Dickinson) was used both for acquisition and analysis of the samples. Ten thousand events were collected on a FACScan flow cytometer, and the results were analysed using CellQuest (Becton Dickinson) software. Only the viable cells were considered for analysis based on their light scatter (FSC/SSC) characteristics. The following antibodies were used: MAb MHM-6 (anti-CD23, from Dr. M. Rowe, University of Wales, Cardiff, Wales, UK), MAb LB-2 (anti-CD54, from E. A. Clark, University of Washington, Seattle, Wash.), MAb IPO-3 (anti-SLAM, kind gift from S. Sidorenko, Acad. of Science of Ukraine, Kiev, Ukraine) and RPE conjugated rabbit anti-mouse Ig F(ab′)2 (Dako, Copenhagen, Denmark) were used as secondary antibody.

human lung cancer cells = settings: cited from earlier work
[3] = system: malignant cells from patients with acute or chronic myelogenous leukemia; settings: cited from earlier work
serum proteins = settings: Can. J. Physiol. Pharmacol. 67, 456 (1989); cited from earlier work
B-CLL cells [4] = experiment: Biosynthesis of LTB4 by intact B-CLL cells (HPLC analysis); format: cell-based, human; settings: intact cells preincubated with diamide (100 μM, two minutes), then A23187 (1 μM) and arachidonic acid (40 μM); mean of six experiments; without diamide 2.6±0.8
Experimental: pre-incubated (intact cells) with diamide (100 μM) for two minutes, followed by stimulation with A23187 (1 μM) and arachidonic acid (40 μM).
10×10^6 cells were suspended in 1 mL PBS and pre-incubated for two minutes with/without azodicarboxylic acid bis(dimethylamide), abbreviated diamide, (100 μM) prior to stimulation with arachidonic acid (40 μM) and/or calcium ionophore A23187 (1 μM). The cells were stimulated for five minutes at 37° C. and the incubations were terminated with 1 mL methanol.
After addition of 0.5 ml PBS and the internal standard PGB1 (100 pmol) to the samples, the cells were centrifuged (2500 rpm, 5 min). The supernatant was subsequently subjected to solid phase extraction on Chromabond C18 columns (200 mg, Macherey & Nagel). The methanol eluate was analysed on Waters Alliance 2695 reverse phase HPLC and detected with Waters PDA 996. Methanol:water:trifiuoroacetic acid (70:30:0.007, v/v) was used as mobile phase at a flow rate of 1.2 mL/min. Qualitative analysis was performed by comparison of retention times of synthetic standards and quantitative determinations were performed by computerized integration of the area of eluted peaks.

CCCCC/C=C\C[C@@H](O)/C=C/C=C/C=C\[C@@H](O)CCCC(=O)O [LTB4]
reversal of the inhibitory action of 100 nM BWA4C on thymidine incorporation (B-CLL cells [1]; exogenous addition, 150 nM): almost completely reversed | reversal of the inhibitory effect of MK-886 on thymidine incorporation (B-CLL cells [1]; exogenously added, 150 nM): almost completely reversed | effect on CD40-induced thymidine incorporation, alone (B-CLL cells [1]; final concentration 150 nM, no inhibitor): did not amplify | reversal of the inhibitory effect of the inhibitors (MK-886, BWA4C) on antigen expression (B-CLL cells [2]; 150 nM): almost completely reversed | effect alone on the expression of CD23, CD54 and CD150 (B-CLL cells [2]; without inhibitor): did not cause any significant effect

CC(C)c1ccc2c(c1)c(SC(C)(C)C)c(CC(C)(C)C(=O)O)n2Cc1ccc(Cl)cc1 [MK-886]
effect on DNA synthesis induced by CD40-ligand stimulation (B-CLL cells [1]; 100 nM): markedly inhibited DNA synthesis | inhibition at 0.1 µM (B-CLL cells [1]; Homo sapiens, 100 nM inhibitor, CD40L-L stimulated B-CLL cells, 96 hr, read-out: inhibitory action on thymidine incorporation): 38% | inhibition at 1 µM (B-CLL cells [1]; Homo sapiens, 1 μM inhibitor, CD40L-L stimulated B-CLL cells, 96 hr, read-out: inhibitory action on thymidine incorporation): 46% | effect on CD40-induced increased expression of CD23, CD54 and CD150 (B-CLL cells [2]): markedly counteracted | antiproliferative effects (human lung cancer cells): antiproliferative effects | antiproliferative effects [3]: antiproliferative effects | binding to serum proteins (serum proteins): relatively high binding

CN(C)C(=O)/N=N/C(=O)N(C)C [diamide, Azodicarboxylic acid bis(dimethylamide)]
production of LTB4 (B-CLL cells [4]): 33.5±1.2 pmol/10^6 cells

CC(=O)N(O)C/C=C/c1cccc(Oc2ccccc2)c1 [BWA4C]
effect on thymidine incorporation (B-CLL cells [1]; 10 nM): significant inhibitory effect | potency to block DNA synthesis compared with MK-886 (B-CLL cells [1]; FIG. 3B): even more potent inhibitor than MK-886 | effect on CD40-induced increased expression of CD23, CD54 and CD150 (B-CLL cells [2]): markedly counteracted
